According to patent US10524472B2, “Elicitor peptides having disrupted hypersensitive response box and use thereof” (Plant Health Care, Inc., priority 2014, dated 2020):
Marks after values point to notes of the source that are not given here.

Tests used:
[1] = tested on: tobacco plants (leaf tissue discs); assay: Peroxide response, ferric-xylenol orange assay on tobacco leaf discs; format: cell-based; settings: 0.5 ug/ml peptide, one hour, absorbance at 595 nm vs blank
Procedure: (§1) The ferric-xylenol orange complex assay for hydrogen peroxide (Gay et al., Analytical Biochemistry 273:149-55 (1999), which is hereby incorporated by reference in its entirety) was used to determine peroxide production by plant leaf tissue. Briefly, reagent A was prepared by mixing 10 mg of ferrous ammonium sulfate with 133 uL of sulfuric acid in a total volume of 1 mL with water. Reagent B was prepared by mixing 2 g of sorbitol with 9.34 mg of xylenol orange in 80 ml of water. 1M hydrochloric acid was slowly added until the solution turned yellow. The solution was then diluted with water to a total volume of 100 mL, and stored in a dark bottle at 4° C.
(§2) Leaves from either tobacco plants (plants grown to 6 true leaves) or soy plants (plants grown to 6 true leaves) were used for the assay. The leaf was first removed from the plant and placed on a paper towel. 0.5 cm leaf tissue circles were then removed from the leaf using a leather punch tool. These discs were then placed into the wells of a 96-well plate. […] of water was added to each disc. The plate was covered with parafilm and rested for 12 hours in the dark. The excess water was then removed and the wells washed with an additional 250 uL of water. The washes were then removed from the wells and replaced with 105 uL of a 0.5 ug/ml solution of peptide in water or water blank, generally in quadruplicate. Where peptide solubility was a problem, pH buffer was added to both the blank and peptide samples. Leaf discs were incubated with the peptides for one hour under fluorescent lighting. 50 ul of the solution from each leaf sample was removed to a new well for chemical analysis.
(§3) Just prior to analysis, reagents A and B were freshly mixed in a 1:100 ratio to produce the assay reagent. 200 ul of this mixture was added to each well containing 50 ul of leaf-treated solution. The plate was incubated in the dark for 20 minutes and the absorbance at 595 nm was detected. Results were analyzed using a two-tailed Student's T-test. The results were divided into several response classes. XR++ indicated a positive response with absorbance >0.05 units above the negative control and a Student's T-test p<0.05. XR+ indicated an absorbance <0.05 units above the blank and a Student's T-test p<0.05. XR weak indicated a response >0.02 units above the negative control with a p-value that was not significant. XR− indicated an absorbance within 0.02 units of the negative control. It should be noted that there can be significant biological variability in the peroxide response due to plant age, location of the disc within the leaf, and other factors. As a result, p-values from the T-test are a guide and not an absolute inclusion criterion.

[2] = tested on: tobacco mosaic virus (TMV); assay: Induction of resistance to tobacco mosaic virus in tobacco; format: in vivo; settings: for Effectiveness Covered (%) (decline in TMV lesions vs UTC, systemic response) / Effectiveness Uncovered (%) (decline in TMV lesions vs UTC, local response): TMV 3 days post-treatment, scored 3 days after inoculation
[3] = tested on: soy plants (leaf tissue discs); assay: Peroxide response, ferric-xylenol orange assay on soy leaf discs; format: cell-based; settings: 0.5 ug/ml peptide, one hour, absorbance at 595 nm vs blank
Procedure: as §1, §2, §3

soybean seeds = assay: Root & shoot growth analysis after seed soak, soy; format: in vivo; settings: for Root (root growth index, percentage increase over untreated control) / Shoot (shoot length, percentage increase over untreated control): soy, 12-14 days
Procedure: Peptides were tested for biological effects on the allocation of growth resources to the shoot (above ground) and root (below ground). Peptides were dissolved at 0.2, 2, or 5 μg/ml in a total volume of 100 ml deionized water. Corn or soybean seeds were then soaked for one hour in the peptide solution. Untreated control (UTC) plants were soaked in deionized water. Clear plastic 300 ml beverage cups (Solo®, Dart Container Corporation) were prepared for planting by marking the bottom with a cross, dividing the bottom into four equal quadrants. The cups were then filled with Sunshine Mix #1 soil (SunGro Horticulture) sieved to ¼″. 100 ml of water was added to the soil. Treated seeds were then planted by pressing the seed lightly into the top of the soil. The seeds were then covered with an additional 50 ml of loose soil. Seeds were allowed to germinate and grow for 12-14 days.
The length of the shoot was measured as the distance from the soil to the lightly stretched tip of the highest leaf for each plant. […] Stunting was defined as lacking a fully expanded true leaf at time of data collection or having an expanded true leaf judged by eye to be <½ the average leaf area of the treatment group. Generally, 30 seeds were planted per treatment group and 15-25 plants were used for data collection.
Root growth was estimated by counting the number of times that a primary root crosses the quadrant marks on the bottom of the cup. These were often observed along the bottom circumference of the cup, although some were visible along the side of the container and were counted as if crossing a vertical extension of the quadrant line. This number was divided by 4 to produce a root growth index.
Each number indicates the percentage increase over the untreated control values.

Soy plants = assay: Growth tests after foliar spray, soy; format: in vivo; settings: for Dry biomass increase (%) / Growth increase (%): soy, 14 days
Procedure: Soy seeds (or corn seeds, as indicated) were planted in flats with 2 seeds per cell within the flat at a greenhouse facility. The seeds were allowed to germinate and the smaller plant is culled, leaving one plant per cell. Once the first true leaves are fully expanded and the second leaves are beginning to expand, the plants were initially measured for height. This was performed by stretching the highest leaf upward and measuring the distance to the soil. Peptides were dissolved in water at the indicated concentrations (Table 21 below). The plants were then treated with a foliar spray using widely available spray bottles until liquid was dripping from the leaves. Six flats of 14 plants each were treated per condition (peptide or control). Designated untreated control plants were sprayed with water. The plants were allowed to grow for 14 days. The height of the plants was again measured and compared to the original height to quantify growth. Finally, the plants were harvested by removing the shoots (all above-ground material). For some experiments, this was weighed upon harvesting to determine the fresh mass (including water weight). The shoots were then dried at 70° C. for 72 hours, and again weighed to determine dry biomass. Although this method uses a similar measure (growth) as in Example 3 above, the treatment method is different (seed soak vs. foliar spray). As a result, the experimental outcomes may diverge.

Sequence: SQGISEKQLDQLQSQLIQALLQP (P4-14S-13Q)
- Peroxide Response, Tobacco [1]: Weak+
- Effectiveness Covered (%) (decline in TMV lesions vs UTC, systemic response) ([2]; spray 10 ug/ml): 61* %
- Effectiveness Uncovered (%) (decline in TMV lesions vs UTC, local response) ([2]; spray 10 ug/ml): 40%

Sequence: QAGPQSANKTGNVDDANNQDPLQALLQAAEDLV (P14-22L,28-29A)
- Peroxide Response, Soy [3]: Weak+
- Effectiveness Covered (%) (decline in TMV lesions vs UTC, systemic response) ([2]; spray 10 ug/ml): 84* %
- Effectiveness Uncovered (%) (decline in TMV lesions vs UTC, local response) ([2]; spray 10 ug/ml): 83* %

Sequence: SQGISEKQLDQLLSQSIQALLQP (P4-14S-16S)
- root growth (text summary of Table 20) (soybean seeds; seed soak, listed as P4-14s-16s): strong shift in resource allocation to root growth
- root growth (text summary of Table 20) (soybean seeds; seed soak, listed as p4-14s-16s): Increased root growth
- Root (root growth index, percentage increase over untreated control) (soybean seeds; seed soak 0.2 μg/ml): 28.3%
- Shoot (shoot length, percentage increase over untreated control) (soybean seeds; seed soak 0.2 μg/ml): −2.0%
- Root (root growth index, percentage increase over untreated control) (soybean seeds; seed soak 2.0 μg/ml): 28.3%*
- Shoot (shoot length, percentage increase over untreated control) (soybean seeds; seed soak 2.0 μg/ml): −11.3%
- Effectiveness Covered (%) (decline in TMV lesions vs UTC, systemic response) ([2]; spray 10 ug/ml): 46%
- Effectiveness Uncovered (%) (decline in TMV lesions vs UTC, local response) ([2]; spray 10 ug/ml): 72* %

Sequence: SQGISEKQLDQLFSQLIQALLQP (P4-14S-13F)
- Peroxide Response, Tobacco [1]: Weak+

Sequence: SQGISEKQLDQLLSQLIQASLQP (P4-14S-20S)
- shoot growth (Table 20) (soybean seeds; seed soak, p14a soy at 0.2 μg/ml): increased shoot growth
- Root (root growth index, percentage increase over untreated control) (soybean seeds; seed soak 5.0 μg/ml): 2.2%
- Shoot (shoot length, percentage increase over untreated control) (soybean seeds; seed soak 5.0 μg/ml): 5.8%*
- TMV response / effectiveness against TMV infection (summary of Table 22) ([2]; foliar spray): weaker TMV responses
- Effectiveness Covered (%) (decline in TMV lesions vs UTC, systemic response) ([2]; spray 10 ug/ml): −45%
- Effectiveness Uncovered (%) (decline in TMV lesions vs UTC, local response) ([2]; spray 10 ug/ml): 59* %

Sequence: QAGPQSANKTGNVDDANNQDPMQALMQLLEDLV (P14)
- root growth (text summary of Table 20) (soybean seeds; seed soak): Increased root growth
- Root (root growth index, percentage increase over untreated control) (soybean seeds; seed soak 5.0 μg/ml): 24.9%*
- Shoot (shoot length, percentage increase over untreated control) (soybean seeds; seed soak 5.0 μg/ml): 4.4%
- Peroxide Response, Tobacco [1]: Weak+
- growth, dry biomass and fresh mass (text summary of Table 21) (Soy plants; foliar spray): increases in growth and dry biomass
- Dry biomass increase (%) (Soy plants; foliar spray 2.0 ug/ml): 1.6%
- Growth increase (%) (Soy plants; foliar spray 2.0 ug/ml): 25.8%
- Dry biomass increase (%) (Soy plants; foliar spray 5.0 ug/ml): 3%
- Growth increase (%) (Soy plants; foliar spray 5.0 ug/ml): 31.4%

Sequence: SQGISEKQDDQLLSQLIQALLQP (P4-14S-9D)
- Peroxide Response, Soy [3]: Weak+
- Effectiveness Covered (%) (decline in TMV lesions vs UTC, systemic response) ([2]; spray 10 ug/ml): 52%
- Effectiveness Uncovered (%) (decline in TMV lesions vs UTC, local response) ([2]; spray 10 ug/ml): 89%

Sequence: QAGPQSANKTGNVDDANNQDPAQALEQLLEDLV (P14-22A,26E)
- Peroxide Response, Soy [3]: Weak+
- Effectiveness Covered (%) (decline in TMV lesions vs UTC, systemic response) ([2]; spray 20 ug/ml): 85* %
- Effectiveness Uncovered (%) (decline in TMV lesions vs UTC, local response) ([2]; spray 20 ug/ml): 91* %

Sequence: SQGISEKQSDQLLSQLIQALLQP (P4-14S-9S)
- Peroxide Response, Tobacco [1]: Weak+
